The results in this text go back to patent US20130310352A1, “DEXAMETHASONE COMBINATION THERAPY” (priority 2010, published 2013).

Holding throughout (assay type): cell-based, human
Data set [1] deals with MM.1S cells. Nature of the data set: Apoptosis in coculture with BMSCs (positive control). Conditions: 40 μg/ml dexamethasone, 24 hours, BMSC coculture. As to the method:
For this purpose, BMSCs isolated from MM patient were cocultured with MM cell lines ARP1, MM.1S and MM.1R. The cells were treated with or without 10 μM of compound A for 24 hours. As a positive control, MM.1S cells were cocultured with or without BMSC and treated with or without 40 μg/ml of dexamethasone for 24 hours. After treatment, the MM cells were identified as CD138+ cells by APC-CD138 staining.
(§1) MM cell lines ARP1, MM.1S and MM.1R were cultured with 10 μM compound A for 3 days. rhIL-6 were added to final concentration of 5 ng/ml. As a positive control, MM.1S cells were treated with 40 μg/ml dexamethasone in the presence of 5 ng/ml of rhIL6 for the same time. Cells apoptosis rate was measured by annexin V staining. (B). Same MM cells were co-cultured with or without MM BMSC, and treated with 10 μM of compound A for 1 day. As a positive control, MM.1S cells were cocultured with or without BMSC and treated with 40 μg/ml dexamethasone for 1 day. CD138+ MM cells apoptosis rate was measured by Annexin V staining.

Data set [2] concerns MM cells ARP1, MM.1S and MM.1R. Nature of the data set: Low-dose single agents, apoptosis. The note with it: 40 μg/ml dexamethasone alone, 1 day.
Description: Compound A-induced cell apoptosis was detected by Annexin V binding assay as previously described (Zheng Y, Cai Z, Wang S, et al. Macrophages are an abundant component of myeloma microenvironment and protect myeloma cells from chemotherapy drug-induced apoptosis. Blood. 2009; 114 (17):3625-3628). Briefly, MM cells were cultured in 24-well plates and treated with 0 to 1 mM final concentrations of compound A for 24 or 72 hours. The cells were washed twice with cold PBS and resuspended in Annexin V binding buffer (Invitrogen). MM cells were stained with FITC-conjugated Annexin V and propidium iodide (PI) for 15 min at room temperature. Apoptotic cells were determined as Annexin V positive cells.
Next, the experiment was extended to other MM cell lines, and they were treated with low compound A (1 μM) and dexamethasone (40 μg/ml).
ARP1 cells were treated with 10 μM compound A (BK), 15 nM melphalan (Me), 40 μg/ml dexamethasone (De), 100 μM lenalidomide (Le), 10 μM Bortizomib (BT), or their combinations for 1 day. The cell apoptosis were measured as described. […] Cell apoptosis was measured. […] Same MM cell lines were treated with compound A for 1 day and cell growth were measured by MTS. […] Cell apoptosis were measured by annexin V staining. […] Cells apoptosis rates were measured by annxin V staining. […]
The subject of data set [3] is MM.1S cells. Nature of the data set: Apoptosis with or without IL-6 addition (positive control). The note with it: 40 μg/ml dexamethasone, rhIL-6. The method, then: IL-6 is an important survival cytokine for MM (Klein B, Zhang X G, Jourdan M, et al. Interleukin-6 is the central tumor growth factor in vitro and in vivo in multiple myeloma. Eur Cytokine Netw. 1990; 1 (4):193-201; Gado K, Domjan G, Hegyesi H, Falus A. Role of INTERLEUKIN-6 in the pathogenesis of multiple myeloma. Cell Biol Int. 2000; 24 (4):195-209). […] For this purpose, different MM cell lines ARP1, MM.1S and MM.1R were cultured with or without recombinant hIL-6 (final concentration […]) and treated with or without 10 μM compound A for 2 days. As a positive control, MM.1S cells were treated with 40 μg/ml of dexamethasone with or without hIL-6 addition for the same period of time.
as §1

Turning to `C[C@@H]1C[C@H]2[C@@H]3CCC4=CC(=O)C=C[C@]4(C)[C@@]3(F)[C@@H](O)C[C@]2(C)[C@@]1(O)C(=O)CO` [dexamethasone, (8S,9R,10S,11S,13S,14S,16R,17R)-9-Fluoro-11,17-dihydroxy-17-(2-hydroxyacetyl)-10,13,16-trimethyl-6,7,8,9,10,11,12,13,14,15,16,17-dodecahydro-3H-cyclopenta[a]phenanthren-3-one], the “effect of BMSCs on dexamethasone induced cell apoptosis” value with MM.1S cells [1] is “protected MM.1S cells”. Further, in data set [2], the “cytotoxic effect of low dose alone” value is reported as “only limited cytotoxic effect”. The “effect of IL6 addition under dexamethasone treatment” value in the data set with MM.1S cells [3] is reported as “promoted MM.1S cells survival”.
